Data as given in patent US20130129667A1, “Attractant compounds for yellow jacket wasps” (priority 2007, published 2013).

What was measured:
Type in all cases: in vivo
Vespula germanica = assay: Field trap catch of yellow jacket wasps with attractant
Description: (§1) On the top inside of the bottle, 2 cm below the cap 17, a 10 ml 'micro' glass vial 19 was installed. In this small container, 0.1 ml of an attractive compound 20 was deposited. In the bottom of the 500 ml bottle, 200 ml of water with liquid household detergent 22 was placed. The traps 10 or containers with the attractant 20, were placed randomly in different species of trees, mostly 'thorns,' Acacia […] Tebo, […] Lo Orozco, and apple trees in Casablanca (Chile), each hung from a wire 24, at a height of about 11⁄2 m from the ground, with a separation between them of about 10 m. […] The traps 10 were placed in Catapilco in the […] farm the 19th of February 2007, in the geographical locations of 33° 37' 06'' S. and 71° 19' 14'' O, for the Campo Lindo farm in Casablanca in 33° 14' 23'' S. and 71° 17' 37'' O on the 20th of February 2007 and Lo Orozco in 33° 13'26'' S. and 71° 24' 04'' O the 9th of April 2007. […] In the extent it was necessary the containers were filled up with water and detergent.

Other insects = assay: Field trap catch of other insects (selectivity)
Description: as §1

Polistes = assay: Field trap catch of Polistes (selectivity); details: Lo Orozco; 21 days; five containers per attractant
Description: (§2) On the top inside of the bottle, 2 cm below the cap 17, a 10 ml 'micro' glass vial 19 was installed. In this small container, 0.1 ml of an attractive compound 20 was deposited. In the bottom of the 500 ml bottle, 200 ml of water with liquid household detergent 22 was placed. The traps 10 or containers with the attractant 20, were placed randomly in different species of trees, mostly 'thorns,' Acacia […] Tebo, […] Lo Orozco, and apple trees in Casablanca (Chile), each hung from a wire 24, at a height of about 11⁄2 m from the ground, with a separation between them of about 10 m. Two replications were used per each attractant in Catapilco, and five replications in Lo Orozco and Casablanca. The traps 10 were placed in Catapilco in the […] farm the 19th of February 2007, in the geographical locations of 33° 37' 06'' S. and 71° 19' 14'' O, for the Campo Lindo farm in Casablanca in 33° 14' 23'' S. and 71° 17' 37'' O on the 20th of February 2007 and Lo Orozco in 33° 13'26'' S. and 71° 24' 04'' O the 9th of April 2007. […] In the extent it was necessary the containers were filled up with water and detergent.

Bees = assay: Field trap catch of bees (selectivity); details: Lo Orozco; 21 days; five containers per attractant
Description: as §2

[1] = Campo Lindo farm, Casablanca, 18 days, two containers per attractant, 0.1 ml
[2] = Manantiales farm, Catapilco, 17 days, two containers per attractant, 0.1 ml
[3] = Lo Orozco, 21 days, five containers per attractant

| SMILES | Total number of V. germanica workers captured (Vespula germanica; [1]) | Total number of V. germanica workers captured (Vespula germanica; [2]) | Total number of other insects captured (Other insects; [1]) | Total number of other insects captured (Other insects; [2]) | Total number of Polistes captured (Polistes) | Total number of Bees captured (Bees) | Attraction compared with the standard mixture of acetic acid with isobutanol (Vespula germanica; Lo Orozco field tests) | Total number of V. germanica workers captured (Vespula germanica; [3]) | Total number of other insects captured (Other insects; [3]) |
| --- | --- | --- | --- | --- | --- | --- | --- | --- | --- |
| CCCCCCCCCCCCO [1-Dodecanol] | 102 | 0 | 1 Sirfid | 0 |  |  |  |  |  |
| CCCCCC(C)=O [2-Heptanone] | 92 | 69 | 0 | 0 |  |  |  |  |  |
| CCCCCCCC(C)=O [2-Nonanone] | 178 | 0 | 0 | 0 |  |  |  |  |  |
| CCCCCCC(C)=O [2-Octanone] | 209 | 416 | 1 Moth | 0 | 1 | 0 | superior | 2.673 | 0 |
| CCCCCC(=O)CC [3-Octanone] | 218 | 356 | 0 |  | 0 | 0 |  | 892 | 0 |
| CCCCCCC=O [Heptaldehyde] | 129 | 9 | 0 | 0 |  |  |  |  |  |
| CCCCCCCCC=O [Nonyl aldehyde] | 97 | 1 | 0 | 3 Bees |  |  |  |  |  |
| CCCCCCCC=O [Octyl aldehyde] | 101 | 3 | 0 | 0 |  |  |  |  |  |
| CCCCC/C=C/C=C/C=O [Trans,trans-2,4-decadienal] | 5 | 84 | 0 | 0 |  |  |  |  |  |
| CCCC/C=C/C=C/C=O [Trans,trans-2,4-nonadienal] | 218 | 0 | 0 | 0 |  |  |  |  |  |
| CCCC/C=C/C=O [Trans-2-heptenal] | 252 | 407 | 0 | 0 | 0 | 0 |  | 999 | 0 |
| CCCCC/C=C/CO [Trans-2-octen-1-ol] | 297 | 474 | 0 | 1 Bee | 1 | 2 |  |  | 0 |
| CCCCC=O [Valeraldehyde] | 84 | 24 | 0 | 0 |  |  |  |  |  |
